Test results reported in patent publication US9328138B2 (priority 2011, dated 2016).

Legend:
[1] = molecular target: HCV NS3 protease genotype 3a (3A-1) (Hepatitis C virus genotype 3a, UniProt Q81258); test: HCV NS3 protease time-resolved fluorescence (TRF) assay, genotype 3a; type: biochemical; settings: Ki 3a
In short: (§1)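 IC50 values derive from 4-parameter fitting of TRF signal after a 6 h room-temperature cleavage of 25 nM peptide substrate by NS3/NS4A that had been pre-incubated 10 min with compound.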

[2] = molecular target: T1, HCV genotype 1b (BK) NS3 modified enzyme with a R155K mutation (Hepatitis C virus genotype 1b, UniProt P26663, R1181K); test: HCV NS3 protease time-resolved fluorescence (TRF) assay, genotype 1b R155K; type: biochemical; settings: Ki 1b R155K, genotype 1b (BK) NS3 R155K; single value
T1 construct: HCV genotype 1b (BK) NS3 modified enzyme
In short: as §1

SMILES | Ki [1] [nM] | Ki [2] [nM]
C=C[C@@H]1C[C@]1(NC(=O)[C@@H]1C[C@@H]2CN1C(=O)[C@H](C1CCCC1)NC(=O)O[C@@H]1CCC[C@H]1CC/C=C/Cc1c(nc3ccccc3c1OCCO)O2)C(=O)NS(=O)(=O)C1CC1 [Example 69, (3aR,7S,10S,12R,21E,24aS)-7-cyclopentyl-N-{(1R,2S)-1-[(cyclopropylsulfonyl)carbamoyl]-2-ethenylcyclopropyl}-19-(2-hydroxyethoxy)-5,8-dioxo-1,2,3,3a,5,6,7,8,11,12,20,23,24,24a-tetradecahydro-10H-9,12-methanocyclopenta[18,19][1,10,3,6]dioxadiazacyclononadecino[11,12-b]quinoline-10-carboxamide] | 1.8 | < 0.016
C=C[C@@H]1C[C@]1(NC(=O)[C@@H]1C[C@@H]2CN1C(=O)[C@H](C(C)(C)C)NC(=O)O[C@@H]1C[C@H]1CCCCCc1c(nc3ccccc3c1OCCN(C)c1ccccc1)O2)C(=O)NS(=O)(=O)C1(C)CC1 [Example 130, (1aR,5S,8S,10R,22aR)-5-tert-butyl-N-[(1R,2S)-2-ethenyl-1-{[(1-methylcyclopropyl)sulfonyl]carbamoyl}cyclopropyl]-17-{2-[methyl(phenyl)amino]ethoxy}-3,6-dioxo-1,1a,3,4,5,6,9,10,18,19, cyclopropa[18,19][1,10,3,6] dioxadiazacyclononadecino [11,12-b]quinoline-8-carboxamide] | 18 | 2.2
C=C[C@@H]1C[C@]1(NC(=O)[C@@H]1C[C@@H]2CN1C(=O)[C@H](C1CCCCC1)NC(=O)O[C@@H]1C[C@H]1CCCCCc1c(nc3ccccc3c1OCCCN1CCC(S(C)(=O)=O)C1)O2)C(=O)NS(=O)(=O)C1(C)CC1 (stereo partly drawn) [Example 166, (1aR,5S,8S,10R,22aR)-5-cyclohexyl-N-[(1R,2S)-2-ethenyl-1-{[(1-methylcyclopropyl)sulfonyl]carbamoyl}cyclopropyl]-17-{3-[3-(methylsuflonyl)pyrrolidin-1-yl]propoxy}-3,6-dioxo-1,1a,3,4,5,9,10, 18,19,20,21,22,22a-tetradecahydro-8H-7,10-methanocyclopropa[18,19][1,10,3,6] dioxadiazacyclononadecino[11,12-b] quinoline-8-carboxamide] | 2.2 | 0.11
C=C[C@@H]1C[C@]1(NC(=O)[C@@H]1C[C@@H]2CN1C(=O)[C@H](C1CCCC1)NC(=O)O[C@@H]1CCC[C@H]1CC/C=C/Cc1c(nc3ccccc3c1OCCCN1CCCC1)O2)C(=O)NS(=O)(=O)C1(C)CC1 [Example 54, (3aR,7S,10S,12R,21E,24aS)-7-cyclopentyl-N-[(1R,2S)-2-ethenyl-1-{[(1-methylcyclopropyl)sulfonyl]carbamoyl}cyclopropyl]-5,8-dioxo-19-[3-(pyrrolidin-1-yl)propoxy]-1,2,3,3a,5,6,7,8,11,12,20,23,24,24a-tetradecahydro-10H-9,12-methanocyclopenta[18,19][1,10,3,6] dioxadiazacyclononadecino[11,12-b] quinoline-10-carboxamide] | 0.45 | 0.02
C=C[C@@H]1C[C@]1(NC(=O)[C@@H]1C[C@@H]2CN1C(=O)[C@H](C(C)(C)C)NC(=O)O[C@@H]1C[C@H]1CCCCCc1c(nc3ccccc3c1OCC1CN(C)CCN1C)O2)C(=O)NS(=O)(=O)C1(C)CC1 (stereo partly drawn) [Example 140, (1ar,5S,8S,10R,22aR)-5-tert-butyl-17-[(1,4-dimethylpiperazin-2-yl)methoxy]-N-[(1R,2S)-2-ethenyl-1-{[(1-methylcyclopropyl)sulfonyl]carbamoyl}cyclopropyl]-3,6-dioxo-1,1a,3,4,5,6,9,10,18,19,20,21,22,22a-tetradecahydro-8H-7,10-methanocyclopropa[18,19][1,10,3,6] dioxadiazacyclononadecino [11,12-b]quinoline-8-carboxamide] | 3 | 0.26
C=C[C@@H]1C[C@]1(NC(=O)[C@@H]1C[C@@H]2CN1C(=O)[C@H](C(C)(C)C)NC(=O)O[C@@H]1C[C@H]1CCCCCc1c(nc3c(F)cccc3c1OCCn1ccnc1)O2)C(=O)NS(=O)(=O)C1(C)CC1 [Example 214, (1aR,5S,8S,10R,22aR)-5-tert-butyl-N-[(1R,2S)-2-ethenyl-1-{[(1-methylcyclopropyl)sulfonyl]carbamoyl}cyclopropyl]-13-fluoro-17-[2-(1H-imidazol-1-yl)ethoxy]-3,6-dioxo-1,1a,3,4,5,6,9,10,18,19,20,21,22,22a-tetradecahydro-8H-7,10-methanocyclopropa[18,19][1,10,3,6] dioxadiazacyclononadecino[11,12-b]quinoline-8-carboxamide] | 1.2 | 0.021
C=C[C@@H]1C[C@]1(NC(=O)[C@@H]1C[C@@H]2CN1C(=O)[C@H](C1CCCC1)NC(=O)O[C@@H]1CCC[C@H]1CC/C=C/Cc1c(nc3ccccc3c1OCCCN1CCCC1=O)O2)C(=O)NS(=O)(=O)C1CC1 [Example 78, (3aR,7S,10S,12R,21E,24aS)-7-cyclo pentyl-N-{(1R,2S)-1-[(cyclopropylsulfonyl)carbamoyl]-2-ethenylcyclopropyl}-5,8-dioxo-19-[3-(2-oxopyrrolidin-1-yl)propoxy]-1,2,3,3a,5,6,7,8,11,12,20,23,24,24a-tetradecahydro-10H-9,12-methano-cyclopenta[18,19][1,10,3,6]dioxa diazacyclonona decino[11,12-b] quinoline-10-carboxamide] | 0.54 | 0.08
C=C[C@@H]1C[C@]1(NC(=O)[C@@H]1C[C@@H]2CN1C(=O)[C@H](C(C)(C)C)NC(=O)O[C@@H]1CCC[C@H]1CCCCCc1c(nc3ccccc3c1OCCN1CCOCC1)O2)C(=O)NS(=O)(=O)N1CCC1 [Example 107, (3aR,7S,10S,12R,24aR)-N-{(1R,2S)-1-[(azetidin-1-ylsulfonyl)carbamoyl]-2-ethenylcyclopropyl}-7-tert-butyl-19-[2-(morpholin-4-yl)ethoxy]-5,8-dioxo-1,2,3,3a,5,6,7,8,11,12,20,21,22,23,24,24a-hexadecahydro-10H-9,12-methanycyclopenta [18,19][1,10,3,6]dioxadiazacyclo nonadecino[11,12-b]quinoline-10-carboxamide] | 23 | 0.74
C=C[C@@H]1C[C@]1(NC(=O)[C@@H]1C[C@@H]2CN1C(=O)[C@H](C(C)(C)C)NC(=O)O[C@@H]1C[C@H]1CCCCCc1c(nc3cc(C(C)C)ccc3c1OCCN1CCOCC1)O2)C(=O)NS(=O)(=O)C1(C)CC1 [Example 132, (1aR,5S,8S,10R,22aR)-5-tert-butyl-N-[(1R,2S)-2-ethenyl-1-{[(1-methylcyclopropyl)sulfonyl]carbamoyl}cyclopropyl]-17-[2-(morpholin-4-yl)ethoxy]-3,6-dioxo-14-(propan-2-yl)-1,1a,3,4,5,6,9,10,18,19,20,21,22,22a-tetradecahydro-8H-7,10-methanocyclopropa[18,19][1,10,3,6]dioxadiazacyclononadecino[11,12-b]quinoline-8-carboxamide] | 6.8 | 0.39
C=C[C@@H]1C[C@]1(NC(=O)[C@@H]1C[C@@H]2CN1C(=O)[C@H](C1CCCC1)NC(=O)O[C@@H]1CCC[C@H]1CC/C=C/Cc1c(nc3ccccc3c1OCCc1ccccn1)O2)C(=O)NS(=O)(=O)C1CC1 [Example 43, (3aR,7S,10S,12R,21E,24aS)-7-cyclopentyl-N-{(1R,2S)-1-[(cyclopropylsulfonyl)carbamoyl]-2-ethenylcyclopropyl}-5,8-dioxo-19-[2-(pyridin-2-yl)ethoxy]-1,2,3,3a, 5,6,7,8,11,12,20,23,24,24a-tetradecahydro-10H-9,12-methanocyclopenta [18,19][1,10,3,6]dioxadiazacyclonona decino[11,12-b]quinoline-10-carboxamide] | 9.9 | 0.28
C=C[C@@H]1C[C@]1(NC(=O)[C@@H]1C[C@@H]2CN1C(=O)[C@H](C(C)(C)C)NC(=O)O[C@@H]1CCC[C@H]1CCCCCc1c(nc3ccccc3c1O)O2)C(=O)NS(=O)(=O)C1(COC)CC1 [Example 35, (3aR,7S,10S,12R,24aR)-7-tert-butyl-N-[(1R,2S)-2-ethenyl-1-({[1-(methoxymethyl)cyclopropyl]sulfonyl}carbamoyl)cyclopropyl]-19-hydroxy-5,8-dioxo-1,2,3,3a,5,6,7,8,11,12, 20,21,22,23,24,24a-hexadecahydro-10H-9,12-methanocyclopenta[18,19][1,10,3,6] dioxadiazacyclononadecino[11,12-b]quinoline-10-carboxamide] | 2 | 0.15
C=C[C@@H]1C[C@]1(NC(=O)[C@@H]1C[C@@H]2CN1C(=O)[C@H](C(C)(C)C)NC(=O)O[C@@H]1C[C@H]1CCCCCc1c(nc3ccccc3c1OCCCN1CC3(CCC3)C1)O2)C(=O)NS(=O)(=O)C1(C)CC1 [Example 154, (1aR,5S,8S,10R,22aR)-17-[3-(2-azaspiro[3.3]hept-2-yl)propoxy]-5-tert-butyl-N-[(1R,2S)-2-ethenyl-1-{[(1-methylcyclopropyl)sulfonyl]carbamoyl}cyclopropyl]-3,6-dioxo-1,1a,3,4,5,6,9,10,18,19,20, 21,22,22a-tetradecahydro-8H-7,10-methanocyclopropa[18,19] [1,10,3,6]dioxadiazacyclononadecino [11,12-b]quinoline-8-carboxamide] | 1.5 | 0.11
